How the values were obtained:
Assay in all cases: KINOMEscan competition binding
Settings in all cases: compound 10.0 µM
[1] = biological target: OXSR1 (human) (UniProt O95747)
[2] = biological target: TAOK2 (human) (UniProt Q9UL54)
[3] = biological target: EIF2AK1 (human) (UniProt Q9BQI3)
[4] = biological target: LRRK2 (human) (UniProt Q5S007)
[5] = biological target: ICK (human) (UniProt Q9UPZ9)
[6] = biological target: HIPK3 (human) (UniProt Q9H422)
[7] = biological target: MAP3K2 (human) (UniProt Q9Y2U5)
[8] = biological target: GRK1 (human) (UniProt Q15835)
[9] = biological target: MAST1 (human) (UniProt Q9Y2H9)
[10] = biological target: STK39 (human) (UniProt Q9UEW8)
[11] = biological target: MAP2K7 (human) (UniProt O14733)
[12] = biological target: NEK4 (human) (UniProt P51957)
[13] = biological target: STK38 (human) (UniProt Q15208)
[14] = biological target: CSNK1A1 (human) (UniProt P48729)
[15] = biological target: MAK (human) (UniProt P20794)
[16] = biological target: NEK11 (human) (UniProt Q8NG66)
[17] = biological target: IRAK1 (human) (UniProt P51617)
[18] = biological target: GRK4 (human) (UniProt P32298)
[19] = biological target: TRPM6 (human) (UniProt Q9BX84)
[20] = biological target: ERBB3 (human) (UniProt P21860)
[21] = biological target: STK32A (human) (UniProt Q8WU08)
[22] = biological target: ROCK1 (human) (UniProt Q13464)
[23] = biological target: HIPK4 (human) (UniProt Q8NE63)
[24] = biological target: MATK (human) (UniProt P42679)
[25] = biological target: CDK4 CCND3 (human) (UniProt P11802+P30281)
[26] = biological target: NEK3 (human) (UniProt P51956)
[27] = tested on: ABL1 (human), P00519 [E255K]
[28] = biological target: DYRK1A (human) (UniProt Q13627)
[29] = tested on: EGFR (human), P00533 [P753S; 747-752 del]
[30] = biological target: CDK4 CCND1 (human) (UniProt P11802+P24385)
[31] = biological target: EGFR (human) (UniProt P00533)
[32] = biological target: DYRK2 (human) (UniProt Q92630)
[33] = biological target: MAP3K13 (human) (UniProt O43283)
[34] = biological target: PKN3 (M.tuberculosis) (UniProt Q6P5Z2)
[35] = biological target: YSK4 (human) (UniProt Q56UN5)
[36] = tested on: FLT3 (human), P36888 [K663Q]
[37] = biological target: CRK2 (P.falciparum) (UniProt P61075)
[38] = biological target: KIT (human) (UniProt P10721)
[39] = biological target: PIK3CG (human) (UniProt P48736)
[40] = biological target: PIK3C2G (human) (UniProt O75747)

Chain of GRK1 (human) (Q15835 whole entry, looked up): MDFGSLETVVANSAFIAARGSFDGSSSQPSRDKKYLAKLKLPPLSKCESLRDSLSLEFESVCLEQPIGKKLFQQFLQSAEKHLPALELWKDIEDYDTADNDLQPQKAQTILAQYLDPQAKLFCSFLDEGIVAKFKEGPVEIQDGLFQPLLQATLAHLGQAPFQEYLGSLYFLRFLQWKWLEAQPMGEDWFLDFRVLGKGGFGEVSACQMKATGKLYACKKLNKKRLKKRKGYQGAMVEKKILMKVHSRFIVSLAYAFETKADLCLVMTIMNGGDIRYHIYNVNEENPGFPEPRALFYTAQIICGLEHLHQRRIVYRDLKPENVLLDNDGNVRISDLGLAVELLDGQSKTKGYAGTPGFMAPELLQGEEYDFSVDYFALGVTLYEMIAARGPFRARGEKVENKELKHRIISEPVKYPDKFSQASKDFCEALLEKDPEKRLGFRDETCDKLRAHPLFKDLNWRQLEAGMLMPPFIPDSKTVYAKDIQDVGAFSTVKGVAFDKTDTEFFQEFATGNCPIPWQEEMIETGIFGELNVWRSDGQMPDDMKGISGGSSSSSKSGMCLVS
Chain of NEK11 (human) (Q8NG66 whole entry, looked up): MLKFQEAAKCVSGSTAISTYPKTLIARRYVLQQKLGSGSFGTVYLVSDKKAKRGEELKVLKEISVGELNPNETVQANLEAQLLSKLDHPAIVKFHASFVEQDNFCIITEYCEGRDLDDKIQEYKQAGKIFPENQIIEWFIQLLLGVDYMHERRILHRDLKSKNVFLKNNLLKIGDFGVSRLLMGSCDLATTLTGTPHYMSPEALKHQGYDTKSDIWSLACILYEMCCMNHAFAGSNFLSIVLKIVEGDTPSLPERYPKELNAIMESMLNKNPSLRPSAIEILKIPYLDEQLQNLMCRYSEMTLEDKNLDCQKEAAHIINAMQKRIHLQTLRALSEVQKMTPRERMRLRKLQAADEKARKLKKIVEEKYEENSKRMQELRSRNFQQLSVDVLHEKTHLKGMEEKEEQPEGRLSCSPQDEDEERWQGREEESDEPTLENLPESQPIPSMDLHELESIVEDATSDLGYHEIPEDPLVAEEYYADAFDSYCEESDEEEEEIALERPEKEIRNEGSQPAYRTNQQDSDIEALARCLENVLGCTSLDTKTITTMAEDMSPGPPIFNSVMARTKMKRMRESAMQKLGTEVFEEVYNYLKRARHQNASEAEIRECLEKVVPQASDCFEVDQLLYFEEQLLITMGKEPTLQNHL
Chain of PKN3 (M.tuberculosis) (Q6P5Z2 whole entry, looked up): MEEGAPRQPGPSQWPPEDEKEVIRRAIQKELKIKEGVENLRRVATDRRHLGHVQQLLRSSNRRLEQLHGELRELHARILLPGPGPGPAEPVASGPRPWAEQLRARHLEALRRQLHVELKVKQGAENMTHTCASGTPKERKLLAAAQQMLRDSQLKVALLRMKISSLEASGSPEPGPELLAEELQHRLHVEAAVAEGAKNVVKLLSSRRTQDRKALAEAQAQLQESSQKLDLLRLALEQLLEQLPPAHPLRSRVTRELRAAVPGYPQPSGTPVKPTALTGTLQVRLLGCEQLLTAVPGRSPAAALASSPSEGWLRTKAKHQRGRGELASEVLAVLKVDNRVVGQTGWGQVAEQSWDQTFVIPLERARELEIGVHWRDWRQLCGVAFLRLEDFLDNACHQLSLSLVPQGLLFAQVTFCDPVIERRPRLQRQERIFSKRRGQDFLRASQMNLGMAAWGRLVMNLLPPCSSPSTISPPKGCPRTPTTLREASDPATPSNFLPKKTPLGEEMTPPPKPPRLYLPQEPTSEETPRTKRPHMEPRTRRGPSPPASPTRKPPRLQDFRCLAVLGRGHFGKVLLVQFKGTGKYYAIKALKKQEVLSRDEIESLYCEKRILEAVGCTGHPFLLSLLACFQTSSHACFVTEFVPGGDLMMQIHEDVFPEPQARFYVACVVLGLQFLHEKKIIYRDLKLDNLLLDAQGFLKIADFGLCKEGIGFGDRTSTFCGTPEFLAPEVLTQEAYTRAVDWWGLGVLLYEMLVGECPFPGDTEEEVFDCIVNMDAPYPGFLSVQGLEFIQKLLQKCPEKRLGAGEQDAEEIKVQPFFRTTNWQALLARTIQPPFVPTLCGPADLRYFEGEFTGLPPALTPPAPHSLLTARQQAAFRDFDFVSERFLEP
Chain of MAP2K7 (human) (O14733 whole entry, looked up): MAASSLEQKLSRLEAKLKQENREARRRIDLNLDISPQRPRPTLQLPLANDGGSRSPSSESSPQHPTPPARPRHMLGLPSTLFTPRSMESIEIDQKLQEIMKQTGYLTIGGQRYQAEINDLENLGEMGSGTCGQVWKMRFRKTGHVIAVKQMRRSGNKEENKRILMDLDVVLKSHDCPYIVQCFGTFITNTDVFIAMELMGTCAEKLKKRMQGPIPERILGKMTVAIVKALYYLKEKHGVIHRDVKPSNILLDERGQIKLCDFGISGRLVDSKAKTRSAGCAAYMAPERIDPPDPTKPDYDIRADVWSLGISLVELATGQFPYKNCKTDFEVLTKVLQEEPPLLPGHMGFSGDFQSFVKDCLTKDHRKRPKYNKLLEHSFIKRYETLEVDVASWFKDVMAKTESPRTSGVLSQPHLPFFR
Chain of HIPK3 (human) (Q9H422 whole entry, looked up): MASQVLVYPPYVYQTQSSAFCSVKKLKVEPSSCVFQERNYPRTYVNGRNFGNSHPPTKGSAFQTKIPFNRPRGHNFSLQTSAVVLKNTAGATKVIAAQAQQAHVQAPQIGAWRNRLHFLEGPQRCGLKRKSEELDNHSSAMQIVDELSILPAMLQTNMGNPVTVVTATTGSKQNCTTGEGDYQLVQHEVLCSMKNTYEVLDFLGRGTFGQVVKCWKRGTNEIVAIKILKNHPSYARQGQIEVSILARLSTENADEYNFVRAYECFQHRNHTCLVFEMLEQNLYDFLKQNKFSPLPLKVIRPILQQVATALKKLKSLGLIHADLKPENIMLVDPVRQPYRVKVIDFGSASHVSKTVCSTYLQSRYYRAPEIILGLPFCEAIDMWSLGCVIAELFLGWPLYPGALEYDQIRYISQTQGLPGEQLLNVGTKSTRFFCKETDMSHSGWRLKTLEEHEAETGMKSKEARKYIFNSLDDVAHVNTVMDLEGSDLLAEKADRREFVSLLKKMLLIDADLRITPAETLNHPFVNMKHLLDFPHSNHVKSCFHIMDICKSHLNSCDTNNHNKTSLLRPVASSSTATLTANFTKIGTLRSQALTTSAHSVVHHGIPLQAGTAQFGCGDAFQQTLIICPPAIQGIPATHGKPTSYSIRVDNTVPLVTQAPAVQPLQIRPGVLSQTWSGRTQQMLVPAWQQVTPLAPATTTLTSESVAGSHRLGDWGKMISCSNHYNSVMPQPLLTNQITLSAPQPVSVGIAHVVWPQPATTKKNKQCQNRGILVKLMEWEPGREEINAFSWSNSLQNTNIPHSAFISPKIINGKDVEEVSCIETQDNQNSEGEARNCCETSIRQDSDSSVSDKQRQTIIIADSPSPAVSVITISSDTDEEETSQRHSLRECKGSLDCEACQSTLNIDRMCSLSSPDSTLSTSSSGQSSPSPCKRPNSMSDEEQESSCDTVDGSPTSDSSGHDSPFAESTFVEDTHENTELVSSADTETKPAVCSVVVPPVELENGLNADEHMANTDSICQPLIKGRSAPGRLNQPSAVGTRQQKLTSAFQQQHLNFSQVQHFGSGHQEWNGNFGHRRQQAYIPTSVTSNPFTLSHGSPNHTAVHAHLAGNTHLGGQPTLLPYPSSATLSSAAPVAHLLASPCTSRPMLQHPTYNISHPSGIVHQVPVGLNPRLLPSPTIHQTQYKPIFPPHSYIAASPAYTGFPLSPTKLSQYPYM
Chain of MAP3K13 (human) (O43283 whole entry, looked up): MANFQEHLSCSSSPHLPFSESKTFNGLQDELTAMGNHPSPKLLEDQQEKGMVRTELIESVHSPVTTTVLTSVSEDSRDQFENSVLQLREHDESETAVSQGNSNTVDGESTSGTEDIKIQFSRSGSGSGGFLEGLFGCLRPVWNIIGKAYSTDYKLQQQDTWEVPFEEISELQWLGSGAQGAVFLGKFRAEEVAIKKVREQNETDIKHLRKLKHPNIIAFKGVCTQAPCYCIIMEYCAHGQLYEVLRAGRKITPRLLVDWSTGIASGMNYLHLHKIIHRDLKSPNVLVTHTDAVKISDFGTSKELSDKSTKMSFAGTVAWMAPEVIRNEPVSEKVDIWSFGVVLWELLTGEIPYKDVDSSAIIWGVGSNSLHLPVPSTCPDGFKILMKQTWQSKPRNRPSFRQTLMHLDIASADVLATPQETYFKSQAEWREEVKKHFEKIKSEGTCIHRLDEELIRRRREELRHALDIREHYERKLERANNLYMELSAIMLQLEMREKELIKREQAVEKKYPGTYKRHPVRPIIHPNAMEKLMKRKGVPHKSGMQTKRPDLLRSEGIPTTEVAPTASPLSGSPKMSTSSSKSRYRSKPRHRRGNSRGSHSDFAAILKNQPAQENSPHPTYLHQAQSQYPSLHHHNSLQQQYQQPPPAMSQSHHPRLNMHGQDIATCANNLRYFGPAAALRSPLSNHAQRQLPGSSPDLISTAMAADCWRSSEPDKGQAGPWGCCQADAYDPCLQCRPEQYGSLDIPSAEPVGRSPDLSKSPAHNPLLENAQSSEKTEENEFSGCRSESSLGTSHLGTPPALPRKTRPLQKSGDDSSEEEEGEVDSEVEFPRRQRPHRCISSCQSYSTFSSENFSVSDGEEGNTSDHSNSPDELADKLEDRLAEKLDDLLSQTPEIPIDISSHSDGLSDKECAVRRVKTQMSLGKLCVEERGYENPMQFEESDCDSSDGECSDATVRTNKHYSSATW
Chain of CSNK1A1 (human) (P48729 whole entry, looked up): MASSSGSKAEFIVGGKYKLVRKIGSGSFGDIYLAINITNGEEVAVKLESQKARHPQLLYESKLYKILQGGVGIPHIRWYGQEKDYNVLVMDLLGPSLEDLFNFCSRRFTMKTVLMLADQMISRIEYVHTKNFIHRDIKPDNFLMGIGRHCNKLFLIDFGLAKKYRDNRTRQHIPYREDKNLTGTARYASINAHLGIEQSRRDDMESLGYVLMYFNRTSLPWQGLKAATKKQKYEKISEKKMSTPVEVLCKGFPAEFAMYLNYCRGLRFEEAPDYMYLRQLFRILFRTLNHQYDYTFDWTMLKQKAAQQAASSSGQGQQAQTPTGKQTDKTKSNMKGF

SMILES	kinase still bound, per cent of control [1] [%]	kinase still bound, per cent of control [2] [%]	kinase still bound, per cent of control [3] [%]	kinase still bound, per cent of control [4] [%]	kinase still bound, per cent of control [5] [%]	kinase still bound, per cent of control [6] [%]	kinase still bound, per cent of control [7] [%]	kinase still bound, per cent of control [8] [%]	kinase still bound, per cent of control [9] [%]	kinase still bound, per cent of control [10] [%]	kinase still bound, per cent of control [11] [%]	kinase still bound, per cent of control [12] [%]	kinase still bound, per cent of control [13] [%]	kinase still bound, per cent of control [14] [%]	kinase still bound, per cent of control [15] [%]	kinase still bound, per cent of control [16] [%]	kinase still bound, per cent of control [17] [%]	kinase still bound, per cent of control [18] [%]	kinase still bound, per cent of control [19] [%]	kinase still bound, per cent of control [20] [%]	further results
Nc1ccc(-c2ccc3ncc4ccc(=O)n(-c5cccc(C(F)(F)F)c5)c4c3c2)cn1	100	92	91	80	79	92	78	100	100	100	100	100	100	94	96	80	84	92	71	50	kinase still bound, per cent of control [21]: 100%; kinase still bound, per cent of control [22]: 79%; kinase still bound, per cent of control [23]: 44%; kinase still bound, per cent of control [24]: 100%; kinase still bound, per cent of control [25]: 90%; kinase still bound, per cent of control [26]: 95%; kinase still bound, per cent of control [27]: 76%; kinase still bound, per cent of control [28]: 75%; kinase still bound, per cent of control [29]: 98%; kinase still bound, per cent of control [30]: 100%; kinase still bound, per cent of control [31]: 100%; kinase still bound, per cent of control [32]: 88%; kinase still bound, per cent of control [33]: 100%; kinase still bound, per cent of control [34]: 63%; kinase still bound, per cent of control [35]: 37%; kinase still bound, per cent of control [36]: 18%; kinase still bound, per cent of control [37]: 100%; kinase still bound, per cent of control [38]: 55%
N#Cc1c(NC(=O)c2cccc3ccccc23)sc2c1CCCC2	100	100	100	94	81	43	100	100	100	100	100	76	100	100	56	100	100	100	100	100	kinase still bound, per cent of control [39]: 99%; kinase still bound, per cent of control [40]: 87%; kinase still bound, per cent of control [21]: 81%; kinase still bound, per cent of control [22]: 100%; kinase still bound, per cent of control [23]: 100%; kinase still bound, per cent of control [24]: 100%; kinase still bound, per cent of control [25]: 84%; kinase still bound, per cent of control [26]: 100%; kinase still bound, per cent of control [27]: 100%; kinase still bound, per cent of control [28]: 100%; kinase still bound, per cent of control [30]: 100%; kinase still bound, per cent of control [32]: 100%; kinase still bound, per cent of control [33]: 83%; kinase still bound, per cent of control [34]: 100%; kinase still bound, per cent of control [35]: 100%; kinase still bound, per cent of control [36]: 93%; kinase still bound, per cent of control [37]: 100%
O=C(NOC[C@H](O)CO)c1ccc(F)c(F)c1Nc1ccc(I)cc1F	100	100	100	86	84	49	100	100	100	96	100	78	100	100	100	91	100	100	100	100	kinase still bound, per cent of control [39]: 88%; kinase still bound, per cent of control [40]: 48%; kinase still bound, per cent of control [21]: 80%; kinase still bound, per cent of control [22]: 100%; kinase still bound, per cent of control [23]: 100%; kinase still bound, per cent of control [24]: 100%; kinase still bound, per cent of control [25]: 84%; kinase still bound, per cent of control [26]: 100%; kinase still bound, per cent of control [27]: 100%; kinase still bound, per cent of control [28]: 100%; kinase still bound, per cent of control [29]: 59%; kinase still bound, per cent of control [30]: 93%; kinase still bound, per cent of control [32]: 95%; kinase still bound, per cent of control [33]: 86%; kinase still bound, per cent of control [34]: 91%; kinase still bound, per cent of control [35]: 100%; kinase still bound, per cent of control [37]: 100%; kinase still bound, per cent of control [38]: 92%
O=C(O)c1ccc(Nc2ncc3c(n2)-c2ccc(Cl)cc2C(c2c(F)cccc2F)=NC3)cc1	94	94	89	82	86	80	100	100	100	100	100	66	100	73	78	100	93	100	100	74	kinase still bound, per cent of control [39]: 100%; kinase still bound, per cent of control [40]: 16%; kinase still bound, per cent of control [21]: 54%; kinase still bound, per cent of control [22]: 63%; kinase still bound, per cent of control [23]: 31%; kinase still bound, per cent of control [24]: 84%; kinase still bound, per cent of control [25]: 100%; kinase still bound, per cent of control [26]: 100%; kinase still bound, per cent of control [28]: 52%; kinase still bound, per cent of control [29]: 28%; kinase still bound, per cent of control [30]: 98%; kinase still bound, per cent of control [31]: 43%; kinase still bound, per cent of control [33]: 100%; kinase still bound, per cent of control [34]: 96%; kinase still bound, per cent of control [35]: 62%; kinase still bound, per cent of control [36]: 68%; kinase still bound, per cent of control [37]: 100%

— the kinase profiling compilation of Christmann-Franck et al. (2016)
